Test results from US6870029B2, “Method of diagnosing and treating gliomas” (priority 1995, dated 2005).
pIC50: −log10 of the molar value. Where “and” joins values, the source holds several entries; their conditions need not be identical. Equal entries are not always repeated. Where two headings read alike, the source gives them in different places.

Experiments:
astrocytoma cells = assay: Proliferation assay, 3H-thymidine incorporation; format: cell-based, human; settings: 24 hour incubation, vs untreated control
Protocol: Proliferation was studied quantitatively by determining incorporation of ^3H-thymidine. In brief, cells were incubated for 24 hours in the continuous presence or absence of Ara-C (cytosine arabinoside, 10 μM), DIDS (200 μM), DNDS (200 μM), zinc (200 μM) or chlorotoxin (600 nM). Cells were incubated with 1 μCi/ml radiolabelled thymidine ([methyl-^3H]thymidine) for the final 4 hours (at 37° C.). Culture dishes were rinsed three times with ice-cold PBS and solublized with 0.3N NaOH for 30 minutes at 37° C. One aliquot ([…]) was used for cell protein determination using the bicinchroninic assay (BCA; Pierce Rockford, Ill.). The remaining cell suspension was mixed with Ultima Gold, and radioactivity was determined with a scintillation counter. The results were expressed as cpm/μg protein.
Given that these Cl^− currents were consistently present in all astrocytoma cells tested from both primary cultures of surgical specimens and from established human astrocytoma cell lines, whether Cl^− currents influence astrocytoma proliferation was examined. Although the effects of Cl^− channel blockade on cell proliferation have been reported in Schwann cells (40) and in B lymphocytes (7), the importance of Cl^− ion channels in glia cells has never been shown. Cells were cultured in the continuous presence of the anti-mitotic agent Ara-C (10 μM), DIDS (200 μM), DNDS (200 μM), Zinc (200 μM), or chlorotoxin (600 nM) and compared the rate of proliferation to untreated (control) sister cultures. Cells were treated at 2 days in culture (DIC) and proliferation was assayed 24 hours later, at 3 DIC, a period of high proliferation of untreated control cultures. As expected, incubation in the anti-mitotic agent Ara-C led to a 70% decrease in proliferation (SD=1.3309, N=17).

[1] = system: Glioma Chloride Channel (GCC); format: cell-based, human; settings: for reversibility of current block: after bath application, short exposure times for DIDS and DNDS; for pIC50: electrophysiologically determined, read-out: IC50 for inhibition of GCC currents
Source text: Current and voltage recordings were obtained using standard whole-cell patch-clamp techniques with an Axopatch-1D amplifier (Axon Instruments). Patch-pipettes were made from thin-walled borosilicate glass (WPI, TW150F-40) o.d. 1.5 mm, i.d. 1.2 mm and were filled with a solution containing (in mM): KCl 145, MgCl2 1, CaCl2 0.2, EGTA 10, Hepes 10, pH adjusted to 7.4 using Tris, unless otherwise noted. Pipettes were not fire-polished and typically had resistances between 2-5MΩ. Cells were continuously superperfused with saline solution, allowing for rapid (<30 seconds) exchange of bath volume. The standard bath solution contained, in mM: NaCl 122.6, KCl 5, MgCl2 1.2, CaCl2 1.0, Na2HPO4 2.0, NaH2PO4 0.4, NaHCO3 25.0, Na2SO4 1.2, Glucose 10.5 (bubbled with 5% CO2/95% O2). Drugs used to block ionic conductances were prepared freshly as stock solutions for each experiment and added to bath solution. Osmolality was measured with a vapor pressure osmometer (Wescor, Logan, Utah) and adjusted to 308-312 mOsms.
For whole-cell recordings, cell capacitance compensation and series resistance compensation were used to minimize voltage errors. The amplifier reading of capacitance was used as the value for the whole-cell membrane capacitance. Series resistances, monitored at regular intervals throughout each experiment, were usually 5-10 MΩ, and series resistance compensation was typically set to ˜80%. Entrance potential, read from the amplifier at the time of entering the whole-cell configuration, was used to determine each cell's resting potential. Voltage-clamp recordings were used to search for voltage-activated currents and stimulation profiles were altered to fully activate chloride channels (pulses from −105 to 195 mV). Where indicated, P/4 leak subtraction was obtained using hyperpolarizing voltage steps to obtain leak currents. Current reversal potential (voltage at which I=0) was determined from IV plots in which tail current amplitudes were plotted as a function of voltage. Effects of channel blockers were assessed by comparing current traces, entrance potential, and reversal potential prior to and following drug application. Snap photographs were taken of each recorded cell using a CCD camera and a video printer for cataloging of cell size, location, and morphology. Recordings were made at room temperature, typically 20-25° C.
Chlorotoxin is a protein having 36 amino acids that is derived from scorpion venom toxin that was originally described as a blocker of small conductance Cl^− channels in epithelial cells (8).
For the following studies, the electrophysiology format was as follows: standard current and voltage recordings were obtained using the whole-cell patch-clamp technique with an Axopatch-1D amplifier (Axon Instruments). Cells were continuously superperfused with bicarbonate-buffered saline at room temperature containing, in mM: NaCl 122.6, KCl 5, MgCl2 1.2, CaCl2 1.0, Na2HPO4 2.0, NaH2PO4 0.4, NaHCO3 25.0, Na2SO4 1.2, Glucose 10.5 (bubbled with 5% CO2). Electrodes (WPI, TW150F-40) o.d. 1.5 mm, i.d. 1.2 mm were filled with (in mM): KCl 145, MgCl2 1, CaCl2 0.2, EGTA 10, Hepes 10, pH adjusted to 7.4 using Tris, unless otherwise noted. Entrance potential, read from the amplifier at the time of entering the whole-cell configuration, was used to determine each cell's resting potential. Voltage-clamp recordings were used to search for voltage-activated currents and stimulation profiles were altered to fully activate chloride channels (pulses from −120 to 120 mV).

normal human glial cells = assay: 125[I]-chlorotoxin binding to non-tumor cells; settings: normal human glial cells and mixed brain cell cultures
Protocol: Therefore, binding affinity was determined using (^125[I]-Ctx) radiolabeled with ^125[I]-sodium iodide by the chloramine-T method.

glioma cells = assay: Immunotoxin (saporin) killing targeted to the Ctx binding site; format: cell-based, human; settings: pre-treatment of cultures with 6 μM
Protocol: FIG. 19 show the glioma cells were exposed to 600 nM Ctx-GST followed by a mouse aGST and a goat anti-mouse antibody conjugated to saporin.
Using this approach, glioma cells were first treated with Ctx-GST, followed by a mouse anti-GST monoclonal antibody and lastly a goat anti-mouse antibody conjugated to saporin.

[2] = applied to the cytosolic face, 200 μM

Nc1ccn([C@@H]2O[C@H](CO)[C@@H](O)[C@@H]2O)c(=O)n1 [Ara-C, cytosine arabinoside]
decrease in proliferation (3H-thymidine incorporation) (astrocytoma cells; 10 μM): 70%

O=S(=O)(O)c1cc(N=C=S)ccc1C=Cc1ccc(N=C=S)cc1S(=O)(=O)O [DIDS, 4,4′-Diisothiocyanostilbene-2,2′-disulfonic acid]
reversibility of current block [1]: partly reversible
block of currents [1, 2]: 50%±10.9
decrease in proliferation (3H-thymidine incorporation) (astrocytoma cells; 200 μM): 16.4%

O=[N+]([O-])c1ccc(C=Cc2ccc([N+](=O)[O-])cc2S(=O)(=O)O)c(S(=O)(=O)O)c1 [DNDS, 4,4′-Dinitrostilbene-2,2′-disulfonic acid]
reversibility of current block [1]: partly reversible
block of currents [1, 2]: 62%
decrease in proliferation (3H-thymidine incorporation) (astrocytoma cells; 200 μM): 38.2%

[Cd] [cadmium]
block of currents ([1]; 25 mM as printed): 42%
decrease in peak currents ([1]; bath application of 25 μM): 42%±18.5

[Zn] [zinc]
decrease in proliferation (3H-thymidine incorporation) (astrocytoma cells; 200 μM): 72.6%

chlorotoxin
specific binding (normal human glial cells): no specific Ctx binding
prevention of immunotoxin cell death (glioma cells): largely prevented
reversibility of current block [1]: partially reversible
block of Cl− currents ([1]; applied to the cytoplasmic face, 2.5 μM): 60.44%
decrease of outward currents ([1]; bath application of 590 nM, STTG1 cells, voltage steps −105 to +195 mV): 81%
pIC50 ([1]; listed as Ctx): ~6.02
pIC50 [1]: 6.02
increase in proliferation (3H-thymidine incorporation) (astrocytoma cells; 600 nM): 37.8% and 37%

glutathione-S-transferase [GST]
reduction in Cl− currents [1]: ineffective
